Data: PubChem BioAssay AID489006 (Sanford-Burnham Center for Chemical Genomics, 2010)
The source made the active and inactive calls. The rule behind the calls is not given here.

System: Jurkat NF-kB reporter, luminescence
Assay: NF-kB reporter inhibition in Jurkat cells, dose response, selectivity assay for B-cell receptor NF-kB inhibitor project, cell-based, luminescence (AID 489006)

Row | SMILES | IC50
1 | CC(C)CCNC(=O)CCCOc1cc(=O)n(C)c2ccccc12 | 70.4 µM (inactive)
2 | CCNC(=O)CCc1nc(-c2ccc(C(C)(C)C)cc2)no1 | > 80 µM (inactive)
3 | COc1ccc(/C=C2\SC(=S)N(CCC(=O)Nc3cccc(O)c3)C2=O)cc1 | > 80 µM (inactive)
4 | COc1ccc(C(=O)Nc2ccccc2C(=O)NCc2ccco2)cc1OC | 61.7 µM (inactive)
5 | COc1ccc(-n2c(-c3ccc(Br)cc3)c[n+]3c2CCc2ccccc2-3)cc1 | 31.8 µM (inactive)
6 | Cn1nnnc1Sc1ncnc2scc(Br)c12 | 1.13 µM
7 | Cc1ccc(-c2nc(C(=O)NCC3CCCO3)cc3c2[nH]c2ccccc23)cc1 (configuration not stated) | 23.4 µM (inactive)
8 | CCOC(=O)N1CCN(CC(=O)Nc2ccc([N+](=O)[O-])cc2C(=O)Nc2ccccc2F)CC1 | 33.1 µM (inactive)
9 | COc1cc(OC)cc(-c2cc3nc(C)c(CCC(=O)Nc4nc(C)cs4)c(C)n3n2)c1 | 5.28 µM
10 | CN(C)CCCN=Cc1c(-c2ccccc2)[nH]n(-c2nc3ccccc3s2)c1=O | 0.88 µM
11 | CC1CCC/C=C/C2CC(O)CC2C(O)/C=C/C(=O)O1 (configuration not stated) | > 80 µM (inactive)
12 | COc1ccc(OCc2cccc(C(=O)Nc3cc(C)on3)c2)cc1 | 3.77 µM
13 | C[C@H]1CCC/C=C/[C@@H]2C[C@H](O)C[C@H]2[C@H](O)/C=C/C(=O)O1 | > 80 µM (inactive)
14 | CCc1sc(C(=O)Nc2cccc(-n3cnnn3)c2)cc1C | > 80 µM (inactive)
15 | CN(C)C(=O)CCc1nc(-c2ccc(C(C)(C)C)cc2)no1 | > 80 µM (inactive)
16 | CC1CC(C)CN(S(=O)(=O)c2ccc(C(=O)NCCCn3ccnc3)cc2)C1 (configuration not stated) | 54.6 µM (inactive)
17 | COc1ccccc1/C=C1/SC(=S)N(CCC(=O)Nc2cccnc2)C1=O | > 80 µM (inactive)
18 | NC(=S)N=Nc1c(O)n(Cc2ccccc2)c2ccccc12 | 23.9 µM (inactive)
19 | COc1ccc(-c2ccc(F)cc2)cc1[C@H]1[C@H]2C=CC[C@@H](C)[C@@H]2C(=O)N1Cc1ccccc1 | > 80 µM (inactive)
20 | CNC(=O)CSc1nc2nn(-c3ccccc3)c(=O)c-2c2n1CCCCC2 | > 80 µM (inactive)
21 | CCN1C(=O)Nc2cccc3cccc1c23 | 36.2 µM (inactive)
22 | CNC(=O)CCc1nc(-c2ccc(C(C)(C)C)cc2)no1 | > 80 µM (inactive)
23 | CCc1ccc2[nH]c3nc(N/N=C/c4cccc(O)c4)nnc3c2c1 | > 80 µM (inactive)
24 | CCCCn1c2c(c(=N)c3ccccc31)CCC2 | > 80 µM (inactive)

Row | SMILES | IC50
25 | COc1ccc(-c2nc(CSCC(=O)NCc3ccco3)c(C)o2)cc1 | 66.8 µM (inactive)
26 | Cc1ccccc1Nc1nc(Cl)c(C=O)s1 | > 80 µM (inactive)
27 | N=c1ccn2c(n1)OC1C(O)C(CO)OC12 (configuration not stated) | 2.21 µM
28 | COc1ccc(/C=C2/SC(=S)N(CCCC(=O)Nc3ccc(O)cc3)C2=O)cc1OC | > 80 µM (inactive)
29 | O=C(CCCN1C(=O)/C(=C/c2ccccc2Cl)SC1=S)Nc1ccccn1 | 9.52 µM
30 | Cc1nc2cc(-c3ccccc3)nn2c(C)c1CCC(=O)N1CCC2(CC1)OCCO2 | > 80 µM (inactive)
31 | O=C(NCCCN1CCOCC1)c1cc(-c2ccc(Br)cc2)on1 | 59.5 µM (inactive)
32 | CCN(CC)c1ccc(/C=C2/C(=O)ON=C2C)cc1 | 19.3 µM
33 | O=c1cccc2c1c1cc[nH]c3ccc(=O)n2c31 | 2.3 µM
34 | CC1CCN(CCCNC(=O)COc2cc(=O)n(C)c3ccccc23)CC1 | > 80 µM (inactive)
35 | Cc1ccc(/C=C2\SC(=S)N(CCCC(=O)Nc3ccc(O)cc3)C2=O)cc1 | 18.9 µM
36 | Cc1cc(C)c(CN2CCN(C(=O)Cn3cnc4c(NCc5ccccc5)ncnc43)CC2)c(C)c1 | 69.9 µM (inactive)
37 | CCc1ccc(/C=C2/SC(=S)N(CCC(=O)Nc3ccc(C(=O)O)cc3)C2=O)cc1 | > 80 µM (inactive)
38 | Cc1cc(C)nc(Sc2ccc([N+](=O)[O-])cc2[N+](=O)[O-])n1 | 11.7 µM
39 | Cn1cnc([N+](=O)[O-])c1Sc1ccc([N+](=O)[O-])cc1 | 8.41 µM
40 | Cc1ccc(-c2c[n+]3c(n2-c2ccccc2)SCC3)cc1 | > 80 µM (inactive)
41 | COc1ccc(-c2noc(N3CCC(C(=O)Nc4cccc(OC)c4)CC3)n2)cc1 | > 80 µM (inactive)
42 | Cc1cc(C)c(S(=O)(=O)NCc2ccncc2)c(C)c1 | > 80 µM (inactive)
43 | CC(C)(C)c1ccc(-c2cc(N)n[nH]2)cc1 | 6.02 µM
44 | Cn1c(=O)cc(OCCCC(=O)N2CCCCC2)c2ccccc21 | > 80 µM (inactive)
45 | CCC(CO)Oc1cc(NCc2ccccc2O)c2ncn(C(C)C)c2c1 (configuration not stated) | > 80 µM (inactive)
46 | CCOC(=O)Cc1csc(NC(=S)NC(=O)c2ccc(Cl)cc2)n1 | 3.85 µM
47 | COc1ccc(/C=C\C(=O)O[C@@H]2C(O)C(O[C@@H]3OC(C)[C@H](O[C@@H]4OCC(O[C@H]5O[C@H](CO)[C@@H](O)C(O)C5O)C(O)C4O)C(O)C3O)[C@H](OC(=O)[C@]34CCC(C)(C)C[C@@H]3C3=CCC5[C@@]6(C)CC(O)C(O[C@@H]7OC(CO)C(O)[C@H](O)[C@H]7O)[C@@](C)(C(=O)O)C6CC[C@@]5(C)[C@]3(CO)CC4)O[C@H]2C)cc1 (some centres not stated) | 2.88 µM
